Here are results for 29 molecules from ChEMBL document CHEMBL3046251, “3D-QSAR CoMFA and CoMSIA studies for design of potent human steroid 5-reductase inhibitors” (Med Chem Res, 2013).

As usually defined, the IC50 is the point on the concentration scale where inhibition reaches its midpoint.

Each structure is given as a SMILES string.

This test deals with T1, 3-oxo-5-alpha-steroid 4-dehydrogenase 2 (Homo sapiens, UniProt P31213).
T1 sequence (P31213 whole entry): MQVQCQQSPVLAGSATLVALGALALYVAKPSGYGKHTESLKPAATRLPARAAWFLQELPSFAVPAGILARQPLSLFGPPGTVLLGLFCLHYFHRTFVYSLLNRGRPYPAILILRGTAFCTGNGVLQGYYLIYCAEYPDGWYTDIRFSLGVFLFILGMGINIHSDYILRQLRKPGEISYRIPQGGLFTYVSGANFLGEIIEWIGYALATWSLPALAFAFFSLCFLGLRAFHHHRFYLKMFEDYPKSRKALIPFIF
Nature of the test: Inhibition of Homo sapiens (human) Steroid 5-alpha-reductase type 2.
For the molecule `CC(C)(C)NC(=O)[C@H]1CC[C@H]2[C@@H]3CNC4=CC(=O)C=C[C@]4(C)[C@H]3CC[C@]12C`, half-maximal inhibition (IC50) required 1.8 nM.

`CCN(CC)C(=O)[C@H]1CC[C@H]2[C@@H]3CN(C)C4=CC(=O)CC[C@]4(C)[C@H]3CC[C@]12C`: inhibition was half-maximal at 2.3 nM (IC50).

Regarding `CC(C)c1cc(C(C)C)c(C(=O)[C@H]2CC[C@H]3[C@@H]4CNC5=CC(=O)CC[C@]5(C)[C@H]4CC[C@]23C)c(C(C)C)c1`, the IC50 was 0.5 nM.

Regarding `CCCN1C[C@H]2[C@@H]3CC[C@H](C(=O)NC(c4ccccc4)c4ccccc4)[C@@]3(C)CC[C@@H]2[C@@]2(C)C=CC(=O)C=C12`, the IC50 stood at 1.3 nM.

`CN1C[C@H]2[C@@H]3CC[C@H](C(=O)NC(c4ccccc4)c4ccccc4)[C@@]3(C)CC[C@@H]2[C@@]2(C)CCC(=O)C=C12` registered an IC50 of 0.2 nM.

The molecule `CN1C[C@H]2[C@@H]3CC[C@H](C(=O)NC4C5CC6CC(C5)CC4C6)[C@@]3(C)CC[C@@H]2[C@@]2(C)CCC(=O)C=C12` (some centres undefined) registered an IC50 of 0.3 nM.

Molecule `CC1=C2NC[C@H]3[C@@H]4CC[C@H](C(=O)NC(C)(C)C)[C@@]4(C)CC[C@@H]3[C@@]2(C)CCC1=O` had an IC50 of 1.4 nM.

For `CN1C[C@H]2[C@@H]3CC[C@H](C(=O)NC(C)(C)C)[C@@]3(C)CC[C@@H]2[C@@]2(C)C=CC(=O)C=C12`, the IC50 stood at 6.7 nM.

Molecule `CCN(CC)C(=O)[C@H]1CC[C@H]2[C@@H]3CNC4=C(C)C(=O)C=C[C@]4(C)[C@H]3CC[C@]12C` displayed an IC50 of 8.1 nM.

For `CCN(CC)C(=O)[C@H]1CC[C@H]2[C@@H]3CNC4=C(Br)C(=O)CC[C@]4(C)[C@H]3CC[C@]12C`, the IC50 worked out at 2.1 nM.

`CCN(CC)C(=O)[C@H]1CC[C@H]2[C@@H]3CN(C)C4=CC(=O)C=C[C@]4(C)[C@H]3CC[C@]12C` yielded an IC50 of 5.7 nM.

`CCN(CC)C(=O)[C@H]1CC[C@H]2[C@@H]3CN(C(C)C)C4=CC(=O)CC[C@]4(C)[C@H]3CC[C@]12C`: 4.9 nM corresponded to half-maximal inhibition (IC50).

`CCN(CC)C(=O)[C@H]1CC[C@H]2[C@@H]3CN(C#N)C4=CC(=O)CC[C@]4(C)[C@H]3CC[C@]12C` showed an IC50 of 42 nM.

As for `CCN(CC)C(=O)[C@H]1CC[C@H]2[C@@H]3CNC4=CC(=O)CC[C@]4(C)[C@H]3CC[C@]12C`, 1.5 nM corresponded to half-maximal inhibition (IC50).

The molecule `CCN(CC)C(=O)[C@H]1CC[C@H]2[C@@H]3CNC4=CC(=O)C=C[C@]4(C)[C@H]3CC[C@]12C` returned an IC50 of 3.5 nM.

As to `C[C@]12CC[C@H]3[C@@H](CNC4=CC(=O)CC[C@@]43C)[C@@H]1CC[C@@H]2C(=O)Nc1cc(C(F)(F)F)cc(C(F)(F)F)c1`, it took 0.2 nM to reach half-maximal inhibition (IC50).

With `CC(C)(C)c1ccc(-c2ccc(C(F)(F)F)cc2NC(=O)[C@H]2CC[C@H]3[C@@H]4CNC5=CC(=O)CC[C@]5(C)[C@H]4CC[C@]23C)cc1`, the IC50 came out at 0.5 nM.

The molecule `CC(C)(C)c1ccccc1NC(=O)[C@H]1CC[C@H]2[C@@H]3CNC4=CC(=O)CC[C@]4(C)[C@H]3CC[C@]12C` gave an IC50 of 0.2 nM.

For `CC(C)CC(=O)[C@H]1CC[C@H]2[C@@H]3CNC4=CC(=O)CC[C@]4(C)[C@H]3CC[C@]12C`, the midpoint of inhibition, the IC50, lay at 0.08 nM.

Take `C[C@]12CC[C@H]3[C@@H](CNC4=CC(=O)CC[C@@]43C)[C@@H]1CC[C@@H]2C(=O)N1CCOCC1`: the IC50 worked out at 7.1 nM.

Turning to `C[C@]12CC[C@H]3[C@@H](CNC4=CC(=O)CC[C@@]43C)[C@@H]1CC[C@@H]2C(=O)NN(c1ccccc1)c1ccccc1`, it took 0.23 nM to reach half-maximal inhibition (IC50).

On to `C[C@]12CC[C@H]3[C@@H](CNC4=CC(=O)CC[C@@]43C)[C@@H]1CC[C@@H]2C(=O)NC(C1CCCCC1)C1CCCCC1`, for which the IC50 was determined as 0.4 nM.

Molecule `C[C@]12CC[C@H]3[C@@H](CNC4=CC(=O)CC[C@@]43C)[C@@H]1CC[C@@H]2C(=O)NC(c1ccc(Cl)cc1)c1ccc(Cl)cc1` displayed an IC50 of 0.12 nM.

Turning to `C[C@]12CC[C@H]3[C@@H](CNC4=CC(=O)CC[C@@]43C)[C@@H]1CC[C@@H]2C(=O)NC(c1ccccc1)(c1ccccc1)c1ccccc1`, the IC50 amounted to 0.09 nM.

Molecule `C[C@]12CC[C@H]3[C@@H](CNC4=CC(=O)CC[C@@]43C)[C@@H]1CC[C@@H]2C(=O)NC(c1ccccc1)c1ccccc1` registered an IC50 of 0.09 nM.

`CCN(C)C(=O)[C@H]1CC[C@H]2[C@@H]3CNC4=CC(=O)CC[C@]4(C)[C@H]3CC[C@]12C`: half-maximal inhibition (IC50) was put at 2.8 nM.

The molecule `CC(C)N(C(=O)[C@H]1CC[C@H]2[C@@H]3CNC4=CC(=O)CC[C@]4(C)[C@H]3CC[C@]12C)C(C)C` showed an IC50 of 0.36 nM.

Molecule `C[C@]12CC[C@H]3[C@@H](CNC4=CC(=O)CC[C@@]43C)[C@@H]1CC[C@@H]2C(=O)OC1C2CC3CC(C2)CC1C3` (some centres undefined) returned an IC50 of 0.04 nM.

As to `CON(C)C(=O)[C@H]1CC[C@H]2[C@@H]3CNC4=CC(=O)CC[C@]4(C)[C@H]3CC[C@]12C`, the IC50 turned out to be 2.4 nM.
